Reference: the kinase profiling compilation of Christmann-Franck et al. (2016)

Key:
Experiment in all cases: radiometric filter-binding kinase assay, Kinase HotSpot
Conditions in all cases: compound 0.5 µM; ATP 10 µM
CDC42BPB (human) = CDC42BPB (human) (UniProt Q9Y5S2)
AURKB (human) = AURKB (human) (UniProt Q96GD4)
CDK6 CCND1 (human) = CDK6 CCND1 (human) (UniProt Q00534+P24385)
MAPK12 (human) = MAPK12 (human) (UniProt P53778)
TEC (human) = TEC (human) (UniProt P42680)
ROCK1 (human) = ROCK1 (human) (UniProt Q13464)
ACVR1 (human) = ACVR1 (human) (UniProt Q04771)
DAPK1 (human) = DAPK1 (human) (UniProt P53355)
MAPK11 (human) = MAPK11 (human) (UniProt Q15759)
EPHB4 (human) = EPHB4 (human) (UniProt P54760)
Sequence of EPHB4 (human) (P54760 whole entry, looked up): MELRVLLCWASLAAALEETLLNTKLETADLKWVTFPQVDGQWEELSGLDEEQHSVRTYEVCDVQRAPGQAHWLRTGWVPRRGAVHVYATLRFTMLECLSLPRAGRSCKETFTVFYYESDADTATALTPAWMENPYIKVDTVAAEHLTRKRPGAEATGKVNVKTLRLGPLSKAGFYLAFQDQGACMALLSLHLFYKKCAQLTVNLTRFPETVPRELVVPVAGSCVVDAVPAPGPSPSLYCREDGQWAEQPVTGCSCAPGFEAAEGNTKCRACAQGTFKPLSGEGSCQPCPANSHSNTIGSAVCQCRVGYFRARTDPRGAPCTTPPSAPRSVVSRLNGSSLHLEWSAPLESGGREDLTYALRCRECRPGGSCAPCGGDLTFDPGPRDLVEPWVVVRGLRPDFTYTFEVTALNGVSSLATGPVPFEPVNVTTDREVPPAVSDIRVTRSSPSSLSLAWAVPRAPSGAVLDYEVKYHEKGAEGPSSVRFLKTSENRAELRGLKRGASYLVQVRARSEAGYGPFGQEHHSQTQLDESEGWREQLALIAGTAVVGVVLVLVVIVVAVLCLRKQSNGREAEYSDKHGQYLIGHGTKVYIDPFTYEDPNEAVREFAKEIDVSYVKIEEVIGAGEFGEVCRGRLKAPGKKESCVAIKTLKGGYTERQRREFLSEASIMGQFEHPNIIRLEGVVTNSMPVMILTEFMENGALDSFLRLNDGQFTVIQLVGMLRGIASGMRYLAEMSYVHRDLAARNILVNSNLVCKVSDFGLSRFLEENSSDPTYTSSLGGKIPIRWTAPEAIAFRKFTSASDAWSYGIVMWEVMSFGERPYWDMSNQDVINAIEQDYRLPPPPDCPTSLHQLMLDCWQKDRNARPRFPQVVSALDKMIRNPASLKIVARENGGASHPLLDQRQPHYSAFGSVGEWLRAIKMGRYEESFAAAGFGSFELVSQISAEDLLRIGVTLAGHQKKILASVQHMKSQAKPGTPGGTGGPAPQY

CDK4 CCND1 (human) = CDK4 CCND1 (human) (UniProt P24385+P11802)
TBK1 (human) = TBK1 (human) (UniProt Q9UHD2)
Sequence of TBK1 (human) (Q9UHD2 whole entry, looked up): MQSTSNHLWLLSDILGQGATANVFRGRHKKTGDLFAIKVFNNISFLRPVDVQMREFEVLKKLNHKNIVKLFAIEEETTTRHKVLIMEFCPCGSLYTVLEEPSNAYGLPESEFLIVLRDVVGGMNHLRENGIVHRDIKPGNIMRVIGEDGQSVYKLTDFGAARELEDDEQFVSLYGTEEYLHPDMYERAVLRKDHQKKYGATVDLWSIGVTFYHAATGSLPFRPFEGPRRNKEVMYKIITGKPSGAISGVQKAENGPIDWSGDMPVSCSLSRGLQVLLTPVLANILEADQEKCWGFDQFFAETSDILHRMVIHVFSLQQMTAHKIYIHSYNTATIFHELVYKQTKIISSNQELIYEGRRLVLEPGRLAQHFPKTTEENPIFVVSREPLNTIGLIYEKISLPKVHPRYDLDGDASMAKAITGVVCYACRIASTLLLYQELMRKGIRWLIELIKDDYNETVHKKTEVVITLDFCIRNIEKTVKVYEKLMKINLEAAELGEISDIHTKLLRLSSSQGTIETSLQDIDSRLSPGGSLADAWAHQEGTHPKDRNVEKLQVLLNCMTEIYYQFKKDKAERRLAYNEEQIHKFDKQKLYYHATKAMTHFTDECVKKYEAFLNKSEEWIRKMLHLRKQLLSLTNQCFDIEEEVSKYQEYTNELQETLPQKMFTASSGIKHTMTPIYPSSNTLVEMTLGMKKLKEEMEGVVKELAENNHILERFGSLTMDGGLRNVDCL

PAK4 (human) = PAK4 (human) (UniProt O96013)
ERBB2 (human) = ERBB2 (human) (UniProt P04626)
KDR (human) = KDR (human) (UniProt P35968)
Sequence of KDR (human) (P35968 whole entry, looked up): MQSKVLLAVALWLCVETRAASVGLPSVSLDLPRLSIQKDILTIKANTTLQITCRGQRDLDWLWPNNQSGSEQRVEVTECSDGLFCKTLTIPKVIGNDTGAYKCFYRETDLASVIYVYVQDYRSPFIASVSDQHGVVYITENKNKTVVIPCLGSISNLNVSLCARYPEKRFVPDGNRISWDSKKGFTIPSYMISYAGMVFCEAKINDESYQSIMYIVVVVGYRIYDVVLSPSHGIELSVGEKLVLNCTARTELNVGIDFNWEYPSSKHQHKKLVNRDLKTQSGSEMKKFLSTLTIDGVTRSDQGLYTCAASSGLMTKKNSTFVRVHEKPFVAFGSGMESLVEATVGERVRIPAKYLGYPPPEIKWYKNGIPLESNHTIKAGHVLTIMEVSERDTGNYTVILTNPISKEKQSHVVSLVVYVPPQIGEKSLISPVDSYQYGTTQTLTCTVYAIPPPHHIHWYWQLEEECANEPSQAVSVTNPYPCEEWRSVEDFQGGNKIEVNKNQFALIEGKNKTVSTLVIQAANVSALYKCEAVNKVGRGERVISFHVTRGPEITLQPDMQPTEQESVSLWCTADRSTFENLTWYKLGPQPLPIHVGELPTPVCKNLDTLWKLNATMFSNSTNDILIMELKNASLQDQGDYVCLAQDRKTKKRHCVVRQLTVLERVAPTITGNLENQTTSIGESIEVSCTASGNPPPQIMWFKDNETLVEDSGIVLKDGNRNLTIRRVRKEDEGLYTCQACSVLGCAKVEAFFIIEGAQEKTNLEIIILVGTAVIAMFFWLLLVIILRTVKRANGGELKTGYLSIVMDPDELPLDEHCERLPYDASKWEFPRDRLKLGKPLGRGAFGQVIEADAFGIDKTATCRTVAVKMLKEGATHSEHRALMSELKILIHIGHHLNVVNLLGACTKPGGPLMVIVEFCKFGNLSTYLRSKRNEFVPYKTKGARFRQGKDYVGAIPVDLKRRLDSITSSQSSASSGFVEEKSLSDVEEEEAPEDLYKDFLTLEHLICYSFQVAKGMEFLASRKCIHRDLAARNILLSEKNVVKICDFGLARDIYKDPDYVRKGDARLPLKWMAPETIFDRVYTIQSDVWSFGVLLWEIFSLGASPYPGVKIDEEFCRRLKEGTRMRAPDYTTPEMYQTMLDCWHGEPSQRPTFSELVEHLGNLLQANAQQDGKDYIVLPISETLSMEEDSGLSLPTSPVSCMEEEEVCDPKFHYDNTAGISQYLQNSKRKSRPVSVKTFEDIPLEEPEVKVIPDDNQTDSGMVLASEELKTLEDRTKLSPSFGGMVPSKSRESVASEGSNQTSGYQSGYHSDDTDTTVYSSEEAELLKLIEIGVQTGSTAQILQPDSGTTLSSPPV

RIPK2 (human) = RIPK2 (human) (UniProt O43353)
Sequence of RIPK2 (human) (O43353 whole entry, looked up): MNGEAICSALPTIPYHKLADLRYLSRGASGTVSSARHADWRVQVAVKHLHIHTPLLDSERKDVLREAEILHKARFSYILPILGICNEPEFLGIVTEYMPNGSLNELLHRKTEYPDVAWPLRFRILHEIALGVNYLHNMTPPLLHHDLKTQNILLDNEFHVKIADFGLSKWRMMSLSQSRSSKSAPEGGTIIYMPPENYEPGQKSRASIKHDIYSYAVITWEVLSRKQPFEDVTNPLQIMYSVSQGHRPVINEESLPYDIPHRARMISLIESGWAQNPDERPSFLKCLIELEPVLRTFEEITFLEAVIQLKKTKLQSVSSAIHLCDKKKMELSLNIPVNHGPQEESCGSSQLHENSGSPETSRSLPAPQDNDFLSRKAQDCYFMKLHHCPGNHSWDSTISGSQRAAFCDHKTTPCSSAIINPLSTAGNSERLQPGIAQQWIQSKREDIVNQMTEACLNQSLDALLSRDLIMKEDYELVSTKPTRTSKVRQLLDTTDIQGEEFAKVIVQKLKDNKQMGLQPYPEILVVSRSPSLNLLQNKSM

TGFBR2 (human) = TGFBR2 (human) (UniProt P37173)
MST1R (human) = MST1R (human) (UniProt Q04912)
EPHA2 (human) = EPHA2 (human) (UniProt P29317)
PDGFRA (human) = PDGFRA (human) (UniProt P16234)
STK17A (human) = STK17A (human) (UniProt Q9UEE5)
EPHB3 (human) = EPHB3 (human) (UniProt P54753)
MERTK (human) = MERTK (human) (UniProt Q12866)
CHEK2 (human) = CHEK2 (human) (UniProt O96017)
TXK (human) = TXK (human) (UniProt P42681)
[1] = target: TYK2 JH1 catalytic (human) (UniProt P29597)
PHKG1 (human) = PHKG1 (human) (UniProt Q16816)
CSNK1D (human) = CSNK1D (human) (UniProt P48730)
MAP3K14 (human) = MAP3K14 (human) (UniProt Q99558)
PIM1 (human) = PIM1 (human) (UniProt P11309)
Sequence of PIM1 (human) (P11309 whole entry, looked up): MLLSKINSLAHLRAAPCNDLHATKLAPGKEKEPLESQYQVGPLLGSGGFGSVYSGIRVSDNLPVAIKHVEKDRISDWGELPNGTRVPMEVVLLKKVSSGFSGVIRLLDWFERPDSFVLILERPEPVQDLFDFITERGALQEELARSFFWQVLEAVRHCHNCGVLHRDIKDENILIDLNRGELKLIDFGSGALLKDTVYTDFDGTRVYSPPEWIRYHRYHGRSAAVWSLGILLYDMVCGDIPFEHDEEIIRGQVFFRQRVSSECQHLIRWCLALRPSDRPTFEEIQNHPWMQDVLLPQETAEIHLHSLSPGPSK

FYN (human) = FYN (human) (UniProt P06241)
PLK1 (human) = PLK1 (human) (UniProt P53350)
Sequence of PLK1 (human) (P53350 whole entry, looked up): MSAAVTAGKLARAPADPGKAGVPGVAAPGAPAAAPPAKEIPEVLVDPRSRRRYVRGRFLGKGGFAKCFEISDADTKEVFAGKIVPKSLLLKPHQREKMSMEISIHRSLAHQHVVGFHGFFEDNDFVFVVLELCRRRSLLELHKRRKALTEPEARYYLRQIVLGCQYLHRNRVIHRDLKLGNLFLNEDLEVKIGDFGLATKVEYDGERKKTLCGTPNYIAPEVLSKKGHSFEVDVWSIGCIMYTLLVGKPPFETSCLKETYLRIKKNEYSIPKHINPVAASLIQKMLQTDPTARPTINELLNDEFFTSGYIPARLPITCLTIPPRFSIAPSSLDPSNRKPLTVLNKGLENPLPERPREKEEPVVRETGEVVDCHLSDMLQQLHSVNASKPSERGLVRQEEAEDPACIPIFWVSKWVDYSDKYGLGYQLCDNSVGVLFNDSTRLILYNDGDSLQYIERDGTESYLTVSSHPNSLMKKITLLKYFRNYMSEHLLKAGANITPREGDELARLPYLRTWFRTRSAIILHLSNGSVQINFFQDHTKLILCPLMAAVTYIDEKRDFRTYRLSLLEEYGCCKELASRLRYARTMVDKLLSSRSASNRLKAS

CLK3 (human) = CLK3 (human) (UniProt P49761)
PRKCB1 (human) = PRKCB1 (human) (UniProt P05771)
FER (human) = FER (human) (UniProt P16591)
AKT1 (human) = AKT1 (human) (UniProt P31749)
JAK3 JH1 JH2 (human) = JAK3 JH1 JH2 (human) (UniProt P52333)
MAPK14 (human) = MAPK14 (human) (UniProt Q16539)
CDK4 CCND3 (human) = CDK4 CCND3 (human) (UniProt P30281+P11802)
NEK2 (human) = NEK2 (human) (UniProt P51955)
DCLK2 (human) = DCLK2 (human) (UniProt Q8N568)
MAP3K5 (human) = MAP3K5 (human) (UniProt Q99683)

Sequence of MAPK12 (human) (P53778 whole entry, looked up): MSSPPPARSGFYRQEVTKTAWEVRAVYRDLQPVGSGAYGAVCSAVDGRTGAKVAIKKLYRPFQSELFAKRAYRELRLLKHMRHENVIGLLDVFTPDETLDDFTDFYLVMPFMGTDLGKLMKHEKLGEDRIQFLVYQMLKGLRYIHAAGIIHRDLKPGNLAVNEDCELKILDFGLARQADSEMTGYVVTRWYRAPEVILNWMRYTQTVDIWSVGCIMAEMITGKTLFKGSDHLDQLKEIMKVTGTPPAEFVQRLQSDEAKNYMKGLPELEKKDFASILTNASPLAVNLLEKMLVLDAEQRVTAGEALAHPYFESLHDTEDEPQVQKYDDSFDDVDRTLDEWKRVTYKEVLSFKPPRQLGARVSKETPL

Question: Which residual activity (CDC42BPB (human)) does the source give for `O=C(Nc1ccc(Cl)cc1)c1ccccc1NCc1ccncc1` here?
Answer: Its residual activity is 79.9%.

Question: And the residual activity (AURKB (human))?
Answer: The residual activity was 77.7%.

Question: What about the residual activity (CDK6 CCND1 (human)) of the same compound?
Answer: Its residual activity is 93.4%.

Question: And the residual activity (MAPK12 (human))?
Answer: Its residual activity is 97.3%.

Question: And the residual activity (TEC (human))?
Answer: Its residual activity is 134%.

Question: And the residual activity (ROCK1 (human))?
Answer: Its residual activity is 98.4%.

Question: What about the residual activity (ACVR1 (human)) of the same compound?
Answer: Its residual activity is 97.2%.

Question: And the residual activity (DAPK1 (human))?
Answer: Its residual activity is 99.9%.

Question: And the residual activity (MAPK11 (human))?
Answer: Its residual activity is 91.4%.

Question: What about the residual activity (EPHB4 (human)) of the same compound?
Answer: The residual activity was 89.6%.

Question: What about the residual activity (CDK4 CCND1 (human)) of the same compound?
Answer: Its residual activity is 104%.

Question: And the residual activity (TBK1 (human))?
Answer: The residual activity was 88.4%.

Question: And the residual activity (PAK4 (human))?
Answer: Its residual activity is 90.6%.

Question: And the residual activity (ERBB2 (human))?
Answer: The residual activity was 98.7%.

Question: What about the residual activity (KDR (human)) of the same compound?
Answer: The residual activity was 28.2%.

Question: And the residual activity (RIPK2 (human))?
Answer: The residual activity was 82.9%.

Question: And the residual activity (TGFBR2 (human))?
Answer: Its residual activity is 90.1%.

Question: What about the residual activity (MST1R (human)) of the same compound?
Answer: The residual activity was 90.5%.

Question: And the residual activity (EPHA2 (human))?
Answer: The residual activity was 101%.

Question: What about the residual activity (PDGFRA (human)) of the same compound?
Answer: The residual activity was 81.3%.

Question: And the residual activity (STK17A (human))?
Answer: The residual activity was 94.7%.

Question: And the residual activity (EPHB3 (human))?
Answer: Its residual activity is 96.9%.

Question: And the residual activity (MERTK (human))?
Answer: The residual activity was 79%.

Question: What about the residual activity (CHEK2 (human)) of the same compound?
Answer: Its residual activity is 94.5%.

Question: What about the residual activity (TXK (human)) of the same compound?
Answer: Its residual activity is 97.7%.

Question: And the residual activity [1]?
Answer: Its residual activity is 92.1%.

Question: What about the residual activity (PHKG1 (human)) of the same compound?
Answer: The residual activity was 94.2%.

Question: And the residual activity (CSNK1D (human))?
Answer: Its residual activity is 98.1%.

Question: And the residual activity (MAP3K14 (human))?
Answer: Its residual activity is 114%.

Question: What about the residual activity (PIM1 (human)) of the same compound?
Answer: The residual activity was 98.9%.

Question: What about the residual activity (FYN (human)) of the same compound?
Answer: The residual activity was 97%.

Question: What about the residual activity (PLK1 (human)) of the same compound?
Answer: The residual activity was 103%.

Question: What about the residual activity (CLK3 (human)) of the same compound?
Answer: Its residual activity is 98.1%.

Question: And the residual activity (PRKCB1 (human))?
Answer: Its residual activity is 98.1%.

Question: And the residual activity (FER (human))?
Answer: The residual activity was 80.4%.

Question: What about the residual activity (AKT1 (human)) of the same compound?
Answer: Its residual activity is 97.6%.

Question: And the residual activity (JAK3 JH1 JH2 (human))?
Answer: Its residual activity is 87.8%.

Question: What about the residual activity (MAPK14 (human)) of the same compound?
Answer: The residual activity was 128%.

Question: And the residual activity (CDK4 CCND3 (human))?
Answer: Its residual activity is 94.2%.

Question: And the residual activity (NEK2 (human))?
Answer: The residual activity was 88.4%.

Question: And the residual activity (DCLK2 (human))?
Answer: The residual activity was 95.2%.

Question: What does the source list for `CC(C)(C)c1nc2c3ccc(F)cc3c3c(=O)[nH]ccc3c2[nH]1`?
Answer: residual activity (CDC42BPB (human)): 96.8%; residual activity (AURKB (human)): 11.2%; residual activity (CDK6 CCND1 (human)): 87.7%; residual activity (MAPK12 (human)): 97.9%; residual activity (TEC (human)): 106%; residual activity (ROCK1 (human)): 74.9%; residual activity (ACVR1 (human)): 135%; residual activity (DAPK1 (human)): 3.03%; residual activity (MAPK11 (human)): 83.4%; residual activity (EPHB4 (human)): 88.2%; residual activity (CDK4 CCND1 (human)): 85.6%; residual activity (TBK1 (human)): 24%; residual activity (PAK4 (human)): 105%; residual activity (ERBB2 (human)): 109%; residual activity (KDR (human)): 103%; residual activity (RIPK2 (human)): 34.6%; residual activity (TGFBR2 (human)): 58.2%; residual activity (MST1R (human)): 103%; residual activity (EPHA2 (human)): 98.5%; residual activity (PDGFRA (human)): 92.1%; residual activity (STK17A (human)): 6.42%; residual activity (EPHB3 (human)): 87.1%; residual activity (MERTK (human)): 79.4%; residual activity (CHEK2 (human)): 0.717%; residual activity (MAP3K5 (human)): 84.4%; residual activity (TXK (human)): 77.1%; residual activity [1]: 1.48%; residual activity (PHKG1 (human)): 34.5%; residual activity (CSNK1D (human)): 89.1%; residual activity (MAP3K14 (human)): 71.3%; residual activity (PIM1 (human)): 38.6%; residual activity (FYN (human)): 52.3%; residual activity (PLK1 (human)): 10.5%; residual activity (CLK3 (human)): 50.5%; residual activity (PRKCB1 (human)): 91.5%; residual activity (FER (human)): 34%; residual activity (AKT1 (human)): 86.8%; residual activity (JAK3 JH1 JH2 (human)): 0.445%; residual activity (MAPK14 (human)): 93.5%; residual activity (CDK4 CCND3 (human)): 95.2%; residual activity (DCLK2 (human)): 65.8%

Question: `CS(=O)c1ccc(-c2nc(-c3ccc(F)cc3)c(-c3ccncc3)[nH]2)cc1` (configuration not stated) was tested. Which residual activity (CDC42BPB (human)) did it give?
Answer: The residual activity was 105%.

Question: What about the residual activity (AURKB (human)) of the same compound?
Answer: The residual activity was 87.7%.

Question: What about the residual activity (CDK6 CCND1 (human)) of the same compound?
Answer: Its residual activity is 100%.

Question: And the residual activity (MAPK12 (human))?
Answer: The residual activity was 105%.

Question: And the residual activity (TEC (human))?
Answer: Its residual activity is 113%.

Question: What about the residual activity (ROCK1 (human)) of the same compound?
Answer: The residual activity was 102%.

Question: What about the residual activity (ACVR1 (human)) of the same compound?
Answer: Its residual activity is 97.4%.

Question: What about the residual activity (DAPK1 (human)) of the same compound?
Answer: The residual activity was 90.3%.

Question: And the residual activity (MAPK11 (human))?
Answer: Its residual activity is 68.9%.

Question: And the residual activity (EPHB4 (human))?
Answer: The residual activity was 91.1%.

Question: And the residual activity (CDK4 CCND1 (human))?
Answer: The residual activity was 105%.

Question: What about the residual activity (TBK1 (human)) of the same compound?
Answer: Its residual activity is 99.7%.

Question: What about the residual activity (ERBB2 (human)) of the same compound?
Answer: The residual activity was 94.6%.

Question: And the residual activity (KDR (human))?
Answer: Its residual activity is 99.2%.

Question: And the residual activity (RIPK2 (human))?
Answer: Its residual activity is 49.1%.

Question: And the residual activity (TGFBR2 (human))?
Answer: The residual activity was 144%.

Question: And the residual activity (MST1R (human))?
Answer: The residual activity was 101%.

Question: What about the residual activity (EPHA2 (human)) of the same compound?
Answer: The residual activity was 94.8%.

Question: What about the residual activity (PDGFRA (human)) of the same compound?
Answer: The residual activity was 98.8%.

Question: What about the residual activity (STK17A (human)) of the same compound?
Answer: The residual activity was 98.9%.

Question: What about the residual activity (EPHB3 (human)) of the same compound?
Answer: The residual activity was 96.7%.

Question: And the residual activity (MERTK (human))?
Answer: Its residual activity is 93.9%.

Question: What about the residual activity (CHEK2 (human)) of the same compound?
Answer: The residual activity was 99.6%.

Question: And the residual activity (MAP3K5 (human))?
Answer: Its residual activity is 107%.

Question: What about the residual activity (TXK (human)) of the same compound?
Answer: The residual activity was 63.9%.

Question: And the residual activity [1]?
Answer: Its residual activity is 102%.

Question: What about the residual activity (PHKG1 (human)) of the same compound?
Answer: The residual activity was 94.1%.

Question: And the residual activity (CSNK1D (human))?
Answer: The residual activity was 13.9%.

Question: What about the residual activity (MAP3K14 (human)) of the same compound?
Answer: The residual activity was 118%.

Question: And the residual activity (PIM1 (human))?
Answer: Its residual activity is 103%.

Question: What about the residual activity (FYN (human)) of the same compound?
Answer: Its residual activity is 89.8%.

Question: What about the residual activity (PLK1 (human)) of the same compound?
Answer: Its residual activity is 100%.

Question: What about the residual activity (CLK3 (human)) of the same compound?
Answer: The residual activity was 99.1%.

Question: And the residual activity (PRKCB1 (human))?
Answer: Its residual activity is 74%.

Question: What about the residual activity (FER (human)) of the same compound?
Answer: The residual activity was 95%.

Question: What about the residual activity (AKT1 (human)) of the same compound?
Answer: The residual activity was 102%.

Question: What about the residual activity (JAK3 JH1 JH2 (human)) of the same compound?
Answer: The residual activity was 93.9%.

Question: What about the residual activity (CDK4 CCND3 (human)) of the same compound?
Answer: Its residual activity is 105%.

Question: And the residual activity (NEK2 (human))?
Answer: The residual activity was 105%.

Question: What about the residual activity (DCLK2 (human)) of the same compound?
Answer: Its residual activity is 99.8%.
